Assay type in all cases: biochemical
For one experiment, the target named is Sap3 of Candida albicans (Candida albicans, UniProt P0CY29). The experiment is described as follows: Inhibition of proteolytic activity of Sap3 (resorufin-marked casein, fluorescence). The procedure:
(§1) For this purpose, that inhibitor concentration was determined in vitro at which the proteolytic activity of the enzyme or its velocity of metabolizing a substrate, respectively, was reduced for 50%.
(§2) The proteolytic activity of the tested Saps was determined at the pH optimum of those Saps. Resorufin-marked casein was used as substrate. Proteolysis of casein can be detected by an increase in fluorescence due to released resorufin (a fluorescence marker) by proteolysis.
(§3) Sap1, Sap3 and Sap6 of Candida albicans were independently dissolved in 2-(N-morpholino)ethanesulfonic acid (MES) having a concentration of 10 mmol/l and a pH of 6.5 resulting in enzyme solutions having a Sap concentration of 100 mmol/l. After one hour incubation at room temperature, 80 μl of a substrate solution comprising resorufin-marked casein in a sodium citrate buffer having a concentration of 500 mmol/l and a pH of 3.5 (in case of Sap3), 4.5 (in case of Sap1) and 5.0 (in case of Sap6) were added to 20 μl of enzyme solution. The resulting Sap concentration was 5 nmol/l. The resulting casein concentration was chosen such that the Saps could work in excess of substrate. Different Sap inhibitors were added, resulting in a final inhibitor concentration of 1 nmol/1, 2 nmol/1, 5 nmol/1, 10 nmol/l, nmol/l or 50 nmol/l in each case. One enzyme-substrate sample was left without addition of inhibitor. All experiments were performed in triplicate.
(§4) The mixture of enzyme and substrate or of enzyme, substrate and inhibitor was incubated at 37° C. under agitation at 300 rpm (rounds per minute) for 60 min in each case. Afterwards, 20 μl of a trichloroacetic acid solution (30%, w/v) were added. The mixture was placed on ice for 5 minutes and centrifuged afterwards for 3 min at 6000 rpm. The supernatant was removed.
(§5) To carry out fluorescence measurements, 100 μl of the supernatant were mixed with 100 μl Tris-HCl (trishydroxymethylaminomethane-HCl) having a concentration of 1 mol/l and a pH of 10.0. The fluorescence of this mixture was measured directly after adding Tris-HCl using an excitation wavelength of 530 nm and an emission wavelength of 590 nm on a CytoFluor 2350 apparatus (Millipore, Bedford, Mass., USA), wherein sensitivity was set to 2 and bandwidth was set to 7.
(§6) The average of three independent fluorescence measurements was calculated. The fluorescence of enzyme without inhibitor (i.e. inhibitor concentration of 0 nmol/l) was set to 100% enzyme activity. The activity of inhibited enzyme was calculated accordingly from the fluorescence of inhibited enzyme with respect to fluorescence of enzyme without inhibitor. Finally, the enzyme activity was plotted against the inhibitor concentration and the IC50 value was determined.

The next experiment deals with Sap1 of Candida albicans (Candida albicans, UniProt P0CY27). Nature of the experiment: Inhibition of proteolytic activity of Sap1 (resorufin-marked casein, fluorescence). The procedure: as §1, §2, §3, §4, §5, §6
A further experiment deals with Sap6 of Candida albicans (Candida albicans, UniProt Q5AC08). The experiment is described as follows: Inhibition of proteolytic activity of Sap6 (resorufin-marked casein, fluorescence). The procedure: as §1, §2, §3, §4, §5, §6

From patent US8809498B2, “Pepstatin A derivatives” (priority 2008, dated 2014) come the findings set out here.

Broadly, the IC50 is the concentration needed to halve the response being measured. Lower therefore signals greater potency.

Starred links: 1 amine or outer side, 2 acyl side, 3 side chain; linkers in the order of their positions; H or OH if unused. Non-standard residues stand in square brackets, D forms with d. Residues, ends and D or L forms follow the SMILES beside them. *: point of attachment. Abu(4,4,4-F3) = N[C@@H](CC(F)(F)F)C(=O)O; X1 = CC(F)(F)C[C@H](N[*:1])C(=O)[*:2]; Sta = CC(C)C[C@H](N)[C@@H](O)CC(=O)O; Isovaleryl = CC(C)CC(=O)*; Orn = NCCC[C@H](N)C(=O)O; Dab = NCC[C@H](N)C(=O)O; Abu = CC[C@H](N)C(=O)O Bounds are passed on as bounds.

Sequence of Sap3 of Candida albicans (P0CY29 59-398): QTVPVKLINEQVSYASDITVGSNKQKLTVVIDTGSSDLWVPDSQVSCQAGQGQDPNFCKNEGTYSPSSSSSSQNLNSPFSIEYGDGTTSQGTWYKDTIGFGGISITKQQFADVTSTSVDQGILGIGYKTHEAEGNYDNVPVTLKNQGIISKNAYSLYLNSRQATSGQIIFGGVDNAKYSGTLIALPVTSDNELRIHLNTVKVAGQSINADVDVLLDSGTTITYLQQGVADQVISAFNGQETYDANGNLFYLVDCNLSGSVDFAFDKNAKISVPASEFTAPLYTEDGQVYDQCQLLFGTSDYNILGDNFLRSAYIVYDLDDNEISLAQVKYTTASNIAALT
Sequence of Sap6 of Candida albicans (Q5AC08 77-418): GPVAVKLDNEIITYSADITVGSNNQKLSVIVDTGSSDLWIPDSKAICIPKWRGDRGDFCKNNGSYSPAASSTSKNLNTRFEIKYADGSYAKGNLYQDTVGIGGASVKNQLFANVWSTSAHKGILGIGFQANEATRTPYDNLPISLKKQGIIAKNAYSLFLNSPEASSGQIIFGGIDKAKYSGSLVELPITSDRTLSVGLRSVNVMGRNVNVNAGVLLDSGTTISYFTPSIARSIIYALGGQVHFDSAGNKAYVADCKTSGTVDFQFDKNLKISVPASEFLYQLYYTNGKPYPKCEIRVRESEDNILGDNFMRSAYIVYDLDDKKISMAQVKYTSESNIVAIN
Sequence of Sap1 of Candida albicans (P0CY27 51-391): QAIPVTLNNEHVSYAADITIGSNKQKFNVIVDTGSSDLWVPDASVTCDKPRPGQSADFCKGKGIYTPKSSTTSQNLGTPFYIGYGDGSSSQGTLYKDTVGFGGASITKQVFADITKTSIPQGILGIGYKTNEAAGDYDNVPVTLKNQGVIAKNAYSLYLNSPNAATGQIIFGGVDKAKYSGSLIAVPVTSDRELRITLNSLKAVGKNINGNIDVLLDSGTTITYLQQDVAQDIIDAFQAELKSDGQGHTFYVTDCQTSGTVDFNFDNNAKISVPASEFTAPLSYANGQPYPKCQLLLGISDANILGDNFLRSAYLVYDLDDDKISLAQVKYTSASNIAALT

`Cc1c(O)cccc1C(=O)N[C@@H](CSc1ccccc1)[C@H](O)CN1C[C@H]2CCCC[C@H]2C[C@H]1C(=O)NC(C)(C)C` [Nelfinavir, reference compound]: the concentration for half-maximal inhibition (IC50) is more than 312000 nM at Sap3 of Candida albicans and approximately 250000 nM against Sap1 of Candida albicans.
Consider `CC(C)CC(=O)N[C@H](C(=O)N[C@H](C(=O)N[C@@H](CC(C)C)[C@@H](O)CC(=O)N[C@@H](CCCNC(=N)N)C(=O)N[C@@H](CC(C)C)[C@@H](O)CC(=O)O)C(C)C)C(C)C` [P1'(Arg)-pepstatin, (N-Iva-Val)-Val-Sta-Arg-Sta] (Isovaleryl-VV[Sta]R[Sta]-OH), for which the 50% inhibitory concentration (IC50) is less than 5 nM against Sap3 of Candida albicans, less than 5 nM on Sap6 of Candida albicans and approximately 10 nM at Sap1 of Candida albicans. Also, the “effect on Sap 6” value at Sap6 of Candida albicans (versus pepstatin A) was “increased effects on Sap 6”.
Turning to `CC(C)CC(=O)N[C@H](C(=O)N[C@H](C(=O)N[C@@H](CC(C)C)[C@@H](O)CC(=O)N[C@@H](CCN)C(=O)N[C@@H](CC(C)C)[C@@H](O)CC(=O)O)C(C)C)C(C)C` [P1'(Dab)-pepstatin, (N-Iva-Val)-Val-Sta-Dab-Sta] (Isovaleryl-VV[Sta][Dab][Sta]-OH), the IC50 on Sap3 of Candida albicans is approximately 20 nM; against Sap6 of Candida albicans, more than 500 nM; on Sap1 of Candida albicans, approximately 400 nM. Besides, the “specificity for Sap3” value on Sap3 of Candida albicans (versus Sap1 and Sap6) was “very high specificity for Sap3”.
For the compound `CC(C)CC(=O)N[C@H](C(=O)N[C@H](C(=O)N[C@@H](CC(C)C)[C@@H](O)CC(=O)N[C@@H](CCCCN)C(=O)N[C@@H](CC(C)C)[C@@H](O)CC(=O)O)C(C)C)C(C)C` [P1'(Lys)-pepstatin, (N-Iva-Val)-Val-Sta-Lys-Sta] (Isovaleryl-VV[Sta]K[Sta]-OH), the IC50 was less than 5 nM at Sap3 of Candida albicans, approximately 7 nM at Sap6 of Candida albicans and less than 5 nM at Sap1 of Candida albicans. Besides, on Sap1 of Candida albicans (versus amprenavir), the “concentration equally effective in inhibiting Sap1, fold less than that of amprenavir” value was found to be 1000 fold. In addition, the “effectiveness against Sap1 compared with pepstatin A” value at Sap1 of Candida albicans (versus pepstatin A) is listed as “more effective against Sap1 than pepstatin A itself”.
`CC(C)CC(=O)N[C@H](C(=O)N[C@H](C(=O)N[C@@H](CC(C)C)[C@@H](O)CC(=O)N[C@@H](CCCN)C(=O)N[C@@H](CC(C)C)[C@@H](O)CC(=O)O)C(C)C)C(C)C` [P1'(Orn)-pepstatin, (N-Iva-Val)-Val-Sta-Orn-Sta] (Isovaleryl-VV[Sta][Orn][Sta]-OH): the IC50 against Sap3 of Candida albicans was approximately 15 nM; against Sap6 of Candida albicans, approximately 30 nM; on Sap1 of Candida albicans, approximately 20 nM.
In the same order, the values of `CC[C@H](NC(=O)[C@@H](NC(=O)CC(C)C)C(C)C)C(=O)N[C@@H](CC(C)C)[C@@H](O)CC(=O)N[C@@H](C)C(=O)N[C@@H](CC(C)C)[C@@H](O)CC(=O)O` [P2(Abu)-pepstatin, (N-Iva-Val)-Abu-Sta-Ala-Sta, reference compound] (Isovaleryl-V[Abu][Sta]A[Sta]-OH) are less than 5 nM, approximately 20 nM and approximately 50 nM.
As for `CC(C)CC(=O)N[C@H](C(=O)N[C@@H](CC(C)(F)F)C(=O)N[C@@H](CC(C)C)[C@@H](O)CC(=O)N[C@@H](C)C(=O)N[C@@H](CC(C)C)[C@@H](O)CC(=O)O)C(C)C` [P2(DfpGly)-pepstatin, (N-Iva-Val)-DfpGly-Sta-Ala-Sta] (Isovaleryl-V[X1][Sta]A[Sta]-OH), the values for the IC50 against Sap3 of Candida albicans, against Sap6 of Candida albicans and against Sap1 of Candida albicans were approximately 5 nM, approximately 15 nM and approximately 20 nM, respectively.
In the same order, the values of `CC(C)CC(=O)N[C@H](C(=O)N[C@@H](CC(C)C)C(=O)N[C@@H](CC(C)C)[C@@H](O)CC(=O)N[C@@H](C)C(=O)N[C@@H](CC(C)C)[C@@H](O)CC(=O)O)C(C)C` [P2(Leu)-pepstatin, (N-Iva-Val)-Leu-Sta-Ala-Sta, reference compound] (Isovaleryl-VL[Sta]A[Sta]-OH) are 100 nM, approximately 200 nM and more than 500 nM.
On the same counts, the results for `CC(C)CC(=O)N[C@H](C(=O)N[C@@H](CC(F)(F)F)C(=O)N[C@@H](CC(C)C)[C@@H](O)CC(=O)N[C@@H](C)C(=O)N[C@@H](CC(C)C)[C@@H](O)CC(=O)O)C(C)C` [P2(TfeGly)-pepstatin, (N-Iva-Val)-TfeGly-Sta-Ala-Sta] (Isovaleryl-V[Abu(4,4,4-F3)][Sta]A[Sta]-OH) are less than 5 nM, approximately 20 nM and approximately 50 nM.
